Results on 26 compounds are retold here after patent US8802711B2, “TRPV1 antagonists” (AbbVie Inc., priority 2011, dated 2014).

pIC50: −log10 of the molar value. Like-named read-outs stand apart in the source and are kept apart here.

The target in assay [1] is T1, human TRPV1 receptor (hTRPV1) (Homo sapiens (Human), UniProt Q8NER1). Kind of assay: Acid activation assay (pH 5.0, FLIPR intracellular Ca2+). It counts as cell-based. Conditions: 37.5 μM antagonist, percentage of the maximal pH 5.0-induced response remaining; for remaining activity at 37.5 µM: read-out: hTRPV1 H+ (max % remain). A digest of the protocol: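 Antagonism of acid-evoked Ca2+ influx measured by FLIPR Calcium-4 fluorescence after a pH 5.0 DPBS/MES stimulus, with compounds preincubated 3 min over 12 half-log concentrations. Cells: stable hTRPV1-expressing 1321N1 line, dye-loaded 90–120 min in the dark at 25 °C.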

Assay [2] addresses T1, human TRPV1 receptor (hTRPV1). Kind of assay: Capsaicin activation assay (FLIPR intracellular Ca2+). Conditions: Table 1; inhibition of capsaicin-induced intracellular Ca2+ increase, HEK293 cells expressing human TRPV1; read-out: hTRPV1 cap IC50. It counts as cell-based. A digest of the protocol:
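Antagonism measured as [Ca2+]i fluorescence on FLIPR Tetra: compounds given 3 min ahead of capsaicin, added as 200 nM (4×), to dye-loaded hTRPV1-HEK293 cells. Response taken as baseline-subtracted peak, normalized to the 50 nM capsaicin control; 12-point one-third-log titrations.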

The subject of the next assay is Sprague-Dawley rats. Kind of assay: Rat tail immersion assay (noxious thermosensation). The format is in vivo. The note with it: read-out: % Increase in tail withdrawal latency; for change in vivo at 100 µmol/kg: 1 h, rat, 100 μmol/kg oral, one hour post dosing, 55° C. water bath, relative to vehicle. How it is done:
Adult male Sprague-Dawley rats (250-300 g body weight, Charles River Laboratories, Portage, Mich.) were used. Animal handling and experimental protocols were approved by the Institutional Animal Care and Use Committee (IACUC) at Abbott Laboratories. For all surgical procedures, animals were maintained under isoflurane anesthesia (4-5% to induce, 1-3% to maintain), and the incision sites were sterilized using a 10% povidone-iodine solution prior to and after surgeries.
Compounds were tested for their effects on noxious thermosensation using the tail immersion assay. Testing was performed one hour following oral administration of 100 μmol/kg of the compound in 10% ethanol/20% Tween-80/70% PEG-400 (2 mL/kg). Morphine (6 mg/kg) was administered interperitoneally (i.p.) using saline (2 mL/kg) as the vehicle. For testing, a circulating water bath was heated to 55° C. Thirty to sixty minutes post dosing, the rats were handled for a few seconds to calm them down and then cupped with their back against the tester's hand at a slight angle with head facing away from the tester. With rat in one hand and a 0.01 second stopwatch in the other hand, the tail was quickly immersed 6-8 cm in the water bath or to a distance leaving 2-3 cm of tail out of water. The timer was started simultaneously. When the rat flinched or attempted withdrawal, timer was immediately stopped and the rat's tail was quickly removed from water bath. This response latency (in seconds) was recorded. Process was repeated 3 times with 3-4 minutes between readings and the average response latency was calculated.
For a given example, a percent increase in the average response latency (in seconds) for tail withdrawal relative to a vehicle control was determined. % increase=[(tc−tv)/tv]×100%
tc=response latency (in seconds) with oral dosing of compounds
tv=response latency (in seconds) with oral dosing of vehicle
The % increases in tail withdrawal latency relative to vehicle control are divided into the following categories: […]

T1 sequence (Q8NER1 whole entry): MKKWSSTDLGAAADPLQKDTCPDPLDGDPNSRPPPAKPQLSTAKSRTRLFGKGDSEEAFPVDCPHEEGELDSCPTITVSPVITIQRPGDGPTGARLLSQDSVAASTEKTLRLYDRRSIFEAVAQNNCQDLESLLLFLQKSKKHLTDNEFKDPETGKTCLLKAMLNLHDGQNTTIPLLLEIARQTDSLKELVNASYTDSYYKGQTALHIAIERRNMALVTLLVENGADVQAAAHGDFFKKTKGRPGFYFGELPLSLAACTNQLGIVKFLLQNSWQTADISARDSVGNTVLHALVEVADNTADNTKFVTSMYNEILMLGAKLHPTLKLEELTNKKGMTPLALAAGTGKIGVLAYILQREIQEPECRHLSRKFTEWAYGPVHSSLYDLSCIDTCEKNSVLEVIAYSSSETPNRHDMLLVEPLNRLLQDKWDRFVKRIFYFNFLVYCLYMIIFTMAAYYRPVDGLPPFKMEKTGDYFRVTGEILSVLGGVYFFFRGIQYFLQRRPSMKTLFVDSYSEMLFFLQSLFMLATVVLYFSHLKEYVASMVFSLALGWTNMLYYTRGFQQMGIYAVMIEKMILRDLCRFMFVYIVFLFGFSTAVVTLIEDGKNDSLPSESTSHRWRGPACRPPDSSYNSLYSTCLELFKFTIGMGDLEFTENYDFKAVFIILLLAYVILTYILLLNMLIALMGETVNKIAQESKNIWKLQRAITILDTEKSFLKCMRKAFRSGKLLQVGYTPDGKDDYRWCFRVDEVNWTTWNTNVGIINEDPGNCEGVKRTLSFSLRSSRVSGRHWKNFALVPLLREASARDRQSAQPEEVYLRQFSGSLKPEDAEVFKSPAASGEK

As to `O=C(Nc1ccc2c(c1)NC(=O)N(CCO)C2)N[C@H]1CC[C@@H](c2ccccc2)C1` [Example 113, 1-[3-(2-hydroxyethyl)-2-oxo-1,2,3,4-tetrahydroquinazolin-7-yl]-3-[(1S,3R)-3-phenylcyclopentyl]urea], in assay [1] (Table 1), the remaining activity at 37.5 µM came out at 50%. In addition, the pIC50 in assay [2] is 5.11.
For `O=C(Nc1ccc2c(c1)NC(=O)N(CCO)C2)N[C@H]1CC[C@H](c2ccccc2)C1` [Example 114, 1-[3-(2-hydroxyethyl)-2-oxo-1,2,3,4-tetrahydroquinazolin-7-yl]-3-[(1S,3S)-3-phenylcyclopentyl]urea], in that order: 62% and 6.08.
With `O=C(Nc1ccc2c(c1)NC(=O)N(CCO)C2)N[C@@H]1CC[C@@H](c2cccc(F)c2)C1` [Example 115, 1-[(1R,3R)-3-(3-fluorophenyl)cyclopentyl]-3-[3-(2-hydroxyethyl)-2-oxo-1,2,3,4-tetrahydroquinazolin-7-yl]urea], in assay [1] (Table 1), the remaining activity at 37.5 µM was found to be 47%. The pIC50 in assay [2] is 6.19.
`O=C(Nc1ccc2c(c1)NC(=O)N(CCO)C2)N[C@H]1CC[C@@H](c2cccc(F)c2)C1` [Example 116, 1-[(1S,3R)-3-(3-fluorophenyl)cyclopentyl]-3-[3-(2-hydroxyethyl)-2-oxo-1,2,3,4-tetrahydroquinazolin-7-yl]urea]: in assay [1] (Table 1), the remaining activity at 37.5 µM stood at 48%. The negative logarithm of the IC50 (pIC50) in assay [2] was 6.03.
For `O=C(Nc1ccc2c(c1)NC(=O)N(CCO)C2)N[C@H]1CC[C@@H](c2ccccc2F)C1` [Example 117, 1-[(1S,3R)-3-(2-fluorophenyl)cyclopentyl]-3-[3-(2-hydroxyethyl)-2-oxo-1,2,3,4-tetrahydroquinazolin-7-yl]urea], in that order: 47% and 6.09.
Take `Cn1c(=O)ccc2c(NC(=O)N[C@H]3CC[C@H](c4ccccc4)C3)cccc21` [Example 118, 1-(1-methyl-2-oxo-1,2-dihydroquinolin-5-yl)-3-[(1S,3S)-3-phenylcyclopentyl]urea]: the remaining activity at 37.5 µM in assay [1] (Table 1) turned out to be 50%. Also, the negative-log IC50 (pIC50) in assay [2] is < 4.43.
The corresponding values for `O=C(Nc1cccc2c1CCC2)N[C@H]1CC[C@@H](c2ccccc2)C1` [Example 124, 1-(2,3-dihydro-1H-inden-4-yl)-3-[(1S,3R)-3-phenylcyclopentyl]urea] are 50% and 5.19.
The corresponding values for `Cc1cc2c(NC(=O)N[C@@H]3CC[C@H](c4nc(C)cs4)C3)c(F)ccc2cn1` [Example 132, 1-(6-fluoro-3-methylisoquinolin-5-yl)-3-[(1R,3S)-3-(4-methyl-1,3-thiazol-2-yl)cyclopentyl]urea] are 40% and 6.49.
The corresponding values for `Cc1cc2c(NC(=O)N[C@@H]3CC[C@@H](c4nc(C)cs4)C3)c(F)ccc2cn1` [Example 133, 1-(6-fluoro-3-methylisoquinolin-5-yl)-3-[(1R,3R)-3-(4-methyl-1,3-thiazol-2-yl)cyclopentyl]urea] are 16% and 6.29.
As for `Cc1cc2c(NC(=O)N[C@H]3CC[C@H](c4nc(C)cs4)C3)c(F)ccc2cn1` [Example 134, 1-(6-fluoro-3-methylisoquinolin-5-yl)-3-[(1S,3S)-3-(4-methyl-1,3-thiazol-2-yl)cyclopentyl]urea], the remaining activity at 37.5 µM in assay [1] (Table 1) turned out to be 36%. Moreover, the pIC50 in assay [2] is 6.81.
The corresponding values for `Cc1cc2c(NC(=O)N[C@H]3CC[C@@H](c4nc(C)cs4)C3)c(F)ccc2cn1` [Example 135, 1-(6-fluoro-3-methylisoquinolin-5-yl)-3-[(1S,3R)-3-(4-methyl-1,3-thiazol-2-yl)cyclopentyl]urea] are 57% and 5.75.
The corresponding values for `O=C(Nc1cccc2c(Cl)nccc12)N[C@@H]1CC[C@H](c2ccccc2)C1` [Example 136, 1-(1-chloroisoquinolin-5-yl)-3-[(1R,3S)-3-phenylcyclopentyl]urea] are 46% and < 4.43.
Turning to `O=C(Nc1cccc2[nH]ccc12)N[C@@H]1CC[C@H](c2ccccc2)C1` [Example 137, 1-(1H-indol-4-yl)-3-[(1R,3S)-3-phenylcyclopentyl]urea], the remaining activity at 37.5 µM in assay [1] (Table 1) turned out to be 42%. Besides, the negative-log IC50 (pIC50) in assay [2] was 7.00.
For `O=C(Nc1cccc2c1CCCC2)N[C@@H]1CC[C@H](c2ccccc2)C1` [Example 138, 1-[(1R,3S)-3-phenylcyclopentyl]-3-(5,6,7,8-tetrahydronaphthalen-1-yl)urea], in that order: 0% and 6.81.
For `CC(C)Cc1cc2c(NC(=O)N[C@@H]3CC[C@H](c4ccccc4)C3)c(F)ccc2cn1` [Example 139, 1-[6-fluoro-3-(2-methylpropyl)isoquinolin-5-yl]-3-[(1R,3S)-3-phenylcyclopentyl]urea], in that order: 89% and < 4.43.
The corresponding values for `CCc1cc2c(NC(=O)N[C@@H]3CC[C@H](c4ccccc4)C3)c(F)ccc2cn1` [Example 140, 1-(3-ethyl-6-fluoroisoquinolin-5-yl)-3-[(1R,3S)-3-phenylcyclopentyl]urea] are 90% and 5.02.
With `Cc1nc(N)cc2c(NC(=O)N[C@@H]3CC[C@H](c4ccccc4)C3)cccc12` [Example 141, 1-(3-amino-1-methylisoquinolin-5-yl)-3-[(1R,3S)-3-phenylcyclopentyl]urea], in assay [1] (Table 1), the remaining activity at 37.5 µM came to 82%. In assay [2], the pIC50 is < 4.43.
For `O=C(Nc1ccc2c(c1)NC(=O)C(N1CCOCC1)C2)N[C@@H]1CC[C@H](c2ccccc2)C1` (stereo partly drawn) [Example 142, 1-[3-(morpholin-4-yl)-2-oxo-1,2,3,4-tetrahydroquinolin-7-yl]-3-[(1R,3S)-3-phenylcyclopentyl]urea], in that order: 66% and 6.94.
Regarding `O=C(Nc1ccc2c(c1)NC(=O)C(N1CCCOCC1)C2)N[C@@H]1CC[C@H](c2ccccc2)C1` (stereo partly drawn) [Example 143, 1-[3-(1,4-oxazepan-4-yl)-2-oxo-1,2,3,4-tetrahydroquinolin-7-yl]-3-[(1R,3S)-3-phenylcyclopentyl]urea], the remaining activity at 37.5 µM in assay [1] (Table 1) came out at 24%. Further, in assay [2], the pIC50 is 6.84.
The corresponding values for `COCCN(C)C1Cc2ccc(NC(=O)N[C@@H]3CC[C@H](c4ccccc4)C3)cc2NC1=O` (stereo partly drawn) [Example 144, 1-{3-[(2-methoxyethyl)(methyl)amino]-2-oxo-1,2,3,4-tetrahydroquinolin-7-yl}-3-[(1R,3S)-3-phenylcyclopentyl]urea] are 62% and < 4.43.
For `CN1CCOc2ccc(NC(=O)N[C@@H]3CC[C@H](c4ccccc4)C3)cc21` [Example 145, 1-(4-methyl-3,4-dihydro-2H-1,4-benzoxazin-6-yl)-3-[(1R,3S)-3-phenylcyclopentyl]urea], in that order: 91% and 6.21.
For `O=C(Nc1ccc2c(c1)NCCO2)N[C@@H]1CC[C@H](c2ccccc2)C1` [Example 146, 1-(3,4-dihydro-2H-1,4-benzoxazin-6-yl)-3-[(1R,3S)-3-phenylcyclopentyl]urea], in that order: 39% and < 4.43.
In the case of `CC(=O)Nc1nc2c(Oc3cc(-c4ccc(C(F)(F)F)cc4)ncn3)cccc2s1` [H, reference compound], in assay [1] (Table 2), the “hTRPV1 H+ (max % remain)” value was 10%. Moreover, the change in vivo at 100 µmol/kg in the assay with Sprague-Dawley rats is > 25%.
`CC(C)(C)c1ccc(Nc2ncnc3cc(-c4ncccc4C(F)(F)F)ccc23)cc1` [I, reference compound]: the remaining activity at 37.5 µM in assay [1] (Table 2) turned out to be 1%. Moreover, the change in vivo at 100 µmol/kg in the assay with Sprague-Dawley rats is > 25%.
For `CC(C)(C)c1ccc2c(c1)CC[C@H]2NC(=O)Nc1cccc2[nH]ncc12` [J, reference compound], in that order: 1% and > 25%.
Take `CN1CC[C@]23c4c5ccc(O)c4O[C@H]2[C@@H](O)C=C[C@H]3[C@H]1C5` [Morphine, reference compound]: the change in vivo at 6 mg/kg with Sprague-Dawley rats (Rattus norvegicus, ip) is > 25%.
